Measured values as given in patent publication US20100137313A1 (ASTRAZENECA AB, priority 2008, published 2010).

Molecular target: S. pneumoniae Topoisomerase IV ATPase (ParE) (Streptococcus pneumoniae serotype 4, UniProt Q59961)
Assay: S. pneumoniae Topoisomerase IV ATPase inhibition
Type: biochemical
Conditions: values marked * are an average of two or more data points, read-out: % Inh (13 μM) of S. pneumoniae Topoisomerase IV ATPase
Summary of the method: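 Malachite green/ammonium molybdate phosphate detection, A650. 1.25 nM ParE, 160 μM ATP, sheared salmon sperm DNA 5 μg/ml, 20 mM Tris pH 8.0, 8.0 mM MgCl2. Controls: 2% DMSO = 0%, 20 μM EDTA = 100% inhibition; IC50 over 10 concentrations.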

S. pneumoniae Topoisomerase IV ATPase (ParE), sequence (Q59961 whole entry): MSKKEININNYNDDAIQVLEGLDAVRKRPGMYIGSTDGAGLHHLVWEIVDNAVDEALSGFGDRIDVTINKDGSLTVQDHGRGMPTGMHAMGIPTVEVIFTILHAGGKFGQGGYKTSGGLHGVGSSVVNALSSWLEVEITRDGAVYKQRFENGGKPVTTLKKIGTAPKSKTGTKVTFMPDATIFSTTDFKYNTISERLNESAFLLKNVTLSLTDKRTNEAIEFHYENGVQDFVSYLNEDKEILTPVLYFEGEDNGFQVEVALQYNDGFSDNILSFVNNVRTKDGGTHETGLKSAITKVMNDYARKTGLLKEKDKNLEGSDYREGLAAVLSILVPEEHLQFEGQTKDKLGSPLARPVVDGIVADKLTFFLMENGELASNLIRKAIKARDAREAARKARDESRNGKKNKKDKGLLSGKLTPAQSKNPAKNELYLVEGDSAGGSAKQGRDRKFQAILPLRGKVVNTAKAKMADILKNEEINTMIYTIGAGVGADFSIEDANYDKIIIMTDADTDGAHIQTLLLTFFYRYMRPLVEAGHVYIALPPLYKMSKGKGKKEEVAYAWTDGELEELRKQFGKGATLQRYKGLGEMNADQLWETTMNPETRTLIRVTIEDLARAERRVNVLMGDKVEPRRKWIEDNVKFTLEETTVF

Compound	inhibition at 13 µM [%]
O=C(O)c1coc2ccc(-c3cnc(Nc4ccc(F)c(Cl)c4)nc3N3CCOCC3)cc2c1=O [Example 459, 6-(2-(3-chloro-4-fluorophenylamino)-4-morpholinopyrimidin-5-yl)-4-oxo-4H-chromene-3-carboxylic acid]	100
COc1ncc(-c2cnc(Nc3ccc(F)c(Cl)c3)nc2NCCc2cccnc2)cn1 [Example 460, N^2-(3-chloro-4-fluorophenyl)-2′-methoxy-N^4-[2-(pyridin-3-yl)ethyl]-5,5′-bipyrimidine-2,4-diamine]	100
COc1ncc(-c2cnc(Nc3ccc(F)c(Cl)c3)nc2NCCc2ccncc2)cn1 [Example 461, N^2-(3-chloro-4-fluorophenyl)-2′-methoxy-N^4-[2-(pyridin-4-yl)ethyl]-5,5′-bipyrimidine-2,4-diamine]	100
COc1ncc(-c2cnc(Nc3ccc(F)c(Cl)c3)nc2NCCc2c[nH]cn2)cn1 [Example 462, N^2-(3-chloro-4-fluorophenyl)-N^4-[2-(1H-imidazol-4-yl)ethyl]-2′-methoxy-5,5′-bipyrimidine-2,4-diamine]	85
COc1ncc(-c2cnc(Nc3ccc(F)c(Cl)c3)nc2NCc2ccncc2C)cn1 [Example 463, N2-(3-chloro-4-fluorophenyl)-2′-methoxy-N4-((3-methylpyridin-4-yl)methyl)-5,5′-bipyrimidine-2,4-diamine]	67
COc1cc(CNc2nc(Nc3ccc(F)c(Cl)c3)ncc2-c2cnc(OC)nc2)cc(OC)c1 [Example 464, N2-(3-chloro-4-fluorophenyl)-N4-(3,5-dimethoxybenzyl)-2′-methoxy-5,5′-bipyrimidin-2,4-diamine]	36
COc1ccc(CNc2nc(Nc3ccc(F)c(Cl)c3)ncc2-c2cnc(OC)nc2)cn1 [Example 465, N2-(3-chloro-4-fluorophenyl)-2′-methoxy-N4-((6-methoxypyridin-3-yl)methyl)-5,5′-bipyrimidine-2,4-diamine]	59
COc1ncc(-c2cnc(Nc3ccc(F)c(Cl)c3)nc2NCC2CCN(C(=O)C3CC3)CC2)cn1 [Example 466, (4-((2-(3-chloro-4-fluorophenylamino)-2′-methoxy-5,5′-bipyrimidin-4-ylamino)methyl)piperidin-1-yl)(cyclopropyl)methanone]	78
CCN1CC(CNc2nc(Nc3ccc(F)c(Cl)c3)ncc2-c2cnc(OC)nc2)CC1=O (stereo not shown) [Example 467, 4-((2-(3-chloro-4-fluorophenylamino)-2′-methoxy-5,5′-bipyrimidin-4-ylamino)methyl)-1-ethylpyrrolidin-2-one]	76
CCN1CCC(CNc2nc(Nc3ccc(F)c(Cl)c3)ncc2-c2cnc(OC)nc2)CC1 [Example 468, N2-(3-chloro-4-fluorophenyl)-N4-((1-ethylpiperidin-4-yl)methyl)-2′-methoxy-5,5′-bipyrimidine-2,4-diamine]	80
COc1ncc(-c2cnc(Nc3ccc(F)c(Cl)c3)nc2NCc2cnn(C)c2C)cn1 [Example 469, N2-(3-chloro-4-fluorophenyl)-N4-((1,5-dimethyl-1H-pyrazol-4-yl)methyl)-2′-methoxy-5,5′-bipyrimidine-2,4-diamine]	64
Fc1ccc(Nc2ncc(-c3cncnc3)c(NCCc3c[nH]cn3)n2)cc1Cl [Example 471, N^2-(3-chloro-4-fluorophenyl)-N^4-[2-(1H-imidazol-4-yl)ethyl]-5,5′-bipyrimidine-2,4-diamine]	84
NC(=O)c1cncc(-c2cnc(Nc3ccc(F)c(Cl)c3)nc2NCCc2c[nH]cn2)c1 [Example 472, 5-(2-[(3-chloro-4-fluorophenyl)amino]-4-{[2-(1H-imidazol-4-yl)ethyl]amino}pyrimidin-5-yl)-pyridine-3-carboxamide]	100
NC(=O)c1cncc(-c2cnc(Nc3ccc(F)c(Cl)c3)nc2NCCc2cccnc2)c1 [Example 473, 5-(2-[(3-chloro-4-fluorophenyl)amino]-4-{[2-(pyridin-3-yl)ethyl]amino}pyrimidin-5-yl)-pyridine-3-carboxamide]	62
NC(=O)c1cncc(-c2cnc(Nc3ccc(F)c(Cl)c3)nc2NCCc2ccncc2)c1 [Example 474, 5-(2-[(3-chloro-4-fluorophenyl)amino]-4-{[2-(pyridin-4-yl)ethyl]amino}pyrimidin-5-yl)-pyridine-3-carboxamide]	100
CONC(=O)c1cncc(-c2cnc(Nc3ccc(F)c(Cl)c3)nc2NCCc2c[nH]cn2)c1 [Example 475, 5-(2-[(3-chloro-4-fluorophenyl)amino]-4-{[2-(1H-imidazol-4-yl)ethyl]amino}pyrimidin-5-yl)-N-methoxypyridine-3-carboxamide]	93
CONC(=O)c1cncc(-c2cnc(Nc3ccc(F)c(Cl)c3)nc2NCCc2cccnc2)c1 [Example 476, 5-(2-[(3-chloro-4-fluorophenyl)amino]-4-{[2-(pyridin-3-yl)ethyl]amino}pyrimidin-5-yl)-N-methoxypyridine-3-carboxamide]	100

Compound	inhibition at 13 µM [%]
CONC(=O)c1cncc(-c2cnc(Nc3ccc(F)c(Cl)c3)nc2NCCc2ccncc2)c1 [Example 477, 5-(2-[(3-chloro-4-fluorophenyl)amino]-4-{[2-(pyridin-4-yl)ethyl]amino}pyrimidin-5-yl)-N-methoxypyridine-3-carboxamide]	100
O=C(O)CCC(=O)Nc1ccc(-c2cnc(Nc3ccc(F)c(Cl)c3)nc2N2CCOCC2)cc1 [Example 478, 4-[(4-{2-[(3-chloro-4-fluorophenyl)amino]-4-(morpholin-4-yl)pyrimidin-5-yl}phenyl)amino]-4-oxobutanoic acid]	100
O=C(O)CCC(=O)Nc1cccc(-c2cnc(Nc3ccc(F)c(Cl)c3)nc2N2CCOCC2)c1 [Example 482, 4-[(3-{2-[(3-chloro-4-fluorophenyl)amino]-4-(morpholin-4-yl)pyrimidin-5-yl}phenyl)amino]-4-oxobutanoic acid]	99
O=C(O)c1cc(-c2cnc(Nc3ccc(F)c(Cl)c3)nc2N2CCOCC2)cs1 [Example 483, 4-{2-[(3-chloro-4-fluorophenyl)amino]-4-(morpholin-4-yl)pyrimidin-5-yl}thiophene-2-carboxylic acid]	66
O=C(O)Cn1cc(-c2cnc(Nc3ccc(F)c(Cl)c3)nc2N2CCOCC2)cn1 [Example 485, (4-{2-[(3-chloro-4-fluorophenyl)amino]-4-(morpholin-4-yl)pyrimidin-5-yl}-1H-pyrazol-1-yl)acetic acid]	85
O=C(O)c1cccc(-c2cnc(Nc3ccc(F)c(Cl)c3)nc2N2CCOCC2)c1 [Example 487, 3-{2-[(3-chloro-4-fluorophenyl)amino]-4-(morpholin-4-yl)pyrimidin-5-yl}benzoic acid]	84
O=C(O)COc1cccc(-c2cnc(Nc3ccc(F)c(Cl)c3)nc2N2CCOCC2)c1 [Example 488, (3-{2-[(3-chloro-4-fluorophenyl)amino]-4-(morpholin-4-yl)pyrimidin-5-yl}phenoxy)acetic acid]	92
O=C(O)COc1ccc(-c2cnc(Nc3ccc(F)c(Cl)c3)nc2N2CCOCC2)cc1 [Example 489, (4-{2-[(3-chloro-4-fluorophenyl)amino]-4-(morpholin-4-yl)pyrimidin-5-yl}phenoxy)acetic acid]	97
O=C(O)c1cc(-c2cnc(Nc3ccc(F)c(Cl)c3)nc2N2CCOCC2)cc([N+](=O)[O-])c1 [Example 490, 3-{2-[(3-chloro-4-fluorophenyl)amino]-4-(morpholin-4-yl)pyrimidin-5-yl}-5-nitrobenzoic acid]	100
Nc1cc(C(=O)O)cc(-c2cnc(Nc3ccc(F)c(Cl)c3)nc2N2CCOCC2)c1 [Example 491, 3-amino-5-{2-[(3-chloro-4-fluorophenyl)amino]-4-(morpholin-4-yl)pyrimidin-5-yl}benzoic acid]	87
O=C(O)c1cc(-c2cnc(Nc3ccc(F)c(Cl)c3)nc2N2CCOCC2)ccn1 [Example 493, 4-{2-[(3-chloro-4-fluorophenyl)amino]-4-(morpholin-4-yl)pyrimidin-5-yl}pyridine-2-carboxylic acid]	9
NC(=O)c1cc(-c2cnc(Nc3ccc(F)c(Cl)c3)nc2-n2ccc(C(F)(F)F)n2)ccn1 [Example 496, 4-{2-[(3-chloro-4-fluorophenyl)amino]-4-[3-(trifluoromethyl)-1H-pyrazol-1-yl]pyrimidin-5-yl}pyridine-2-carboxamide]	100
Fc1ccc(Nc2ncc(-c3nc4ccccc4[nH]3)c(N3CCOCC3)n2)cc1Cl [Example 497, 5-(1H-benzimidazol-2-yl)-N-(3-chloro-4-fluorophenyl)-4-(morpholin-4-yl)pyrimidin-2-amine]	61
COCCCNc1nc(Nc2ccc(F)c(Cl)c2)ncc1-c1nc(-c2ccc(C#N)cc2)cs1 [Example 498, 4-(2-{2-[(3-chloro-4-fluorophenyl)amino]-4-[(3-methoxypropyl)amino]pyrimidin-5-yl}-1,3-thiazol-4-yl)benzonitrile]	41
COCCCNc1nc(Nc2ccc(F)c(Cl)c2)ncc1-c1nc(-c2cccnc2)cs1 [Example 499, N^2-(3-chloro-4-fluorophenyl)-N^4-(3-methoxypropyl)-5-[4-(pyridin-3-yl)-1,3-thiazol-2-yl]pyrimidine-2,4-diamine]	34
COCCCNc1nc(Nc2ccc(F)c(Cl)c2)ncc1-c1nc(-c2ccncc2)cs1 [Example 500, N^2-(3-chloro-4-fluorophenyl)-N^4-(3-methoxypropyl)-5-[4-(pyridin-4-yl)-1,3-thiazol-2-yl]pyrimidine-2,4-diamine]	83
COCCCNc1nc(Nc2ccc(F)c(Cl)c2)ncc1-c1nc(-c2nccs2)cs1 [Example 502, 5-(2,4′-bi-1,3-thiazol-2′-yl)-N^2-(3-chloro-4-fluorophenyl)-N^4-(3-methoxypropyl)pyrimidine-2,4-diamine]	10
